Measurements: patent publication EP0982026A2, “Use of aryl-cyclohexylamine derivatives in the manufacture of NMDA receptor blockers” (priority 1998, dated 2000)

target: T1, NMDA receptor (Rattus norvegicus, UniProt P35439+Q00960); experiment: 3H-Ro 25-6981 binding (displacement) on rat brain membranes; set-up: species or system Füllinsdorf albino rats; conditions: not given
T1 construct: Membranes were prepared by homogenization of the whole brain minus cerebellum and medulla oblongata; from tissue; host or cells: rat whole brain minus cerebellum and medulla oblongata (membranes)
Method: 3H-Ro 25-6981 binding (Ro 25-6981 is [R-(R*,S*)]-a-(4-Hydroxy-phenyl)-b-methyl-4-(phenyl-methyl)-1-piperidine propanol)
Male Füllinsdorf albino rats weighing between 150-200 g were used. Membranes were prepared by homogenization of the whole brain minus cerebellum and medulla oblongata with a Polytron (10.000 rpm, 30 seconds), in 25 volumes of a cold Tris-HCl 50 mM, EDTA 10 mM, pH 7.1 buffer. The homogenate was centrifuged at 48.000 g for 10 minutes at 4°C. The pellet was resuspended using the Polytron in the same volume of buffer and the homogenate was incubated at 37°C for 10 minutes. After centrifugation the pellet was homogenized in the same buffer and frozen at -80°C for at least 16 hours but not more than 10 days. For the binding assay the homogenate was thawed at 37°C, centrifuged and the pellet was washed three times as above in a Tris-HCl 5 mM, pH 7.4 cold buffer. The final pellet was resuspended in the same buffer and used at a final concentration of […] of protein/ml.
3H-Ro 25-6981 binding experiments were performed using a Tris-HCl 50 mM, pH 7.4 buffer. For displacement experiments 5 nM of 3H-Ro 25-6981 were used and non specific binding was measured using 10 mM of tetrahydroisoquinoline and usually it accounts for 10% of the total. The incubation time was 2 hours at 4°C and the assay was stopped by filtration on Whatmann GF/B glass fiber filters (Unifilter-96, Packard, Zürich, Switzerland). The filters were washed 5 times with cold buffer. The radioactivity on the filter was counted on a Packard Top-count microplate scintillation counter after addition of […] of microscint 40 (Canberra Packard S.A., Zürich, Switzerland).
The effects of compounds were measured using a minimum of 8 concentrations and repeated at least once. The pooled normalized values were analyzed using a non-linear regression calculation program which provide IC50 with their relative upper and lower 95% confidence limits (RS1, BBN, USA).

T1 sequence (Q00960 27-1482, other chains not shown): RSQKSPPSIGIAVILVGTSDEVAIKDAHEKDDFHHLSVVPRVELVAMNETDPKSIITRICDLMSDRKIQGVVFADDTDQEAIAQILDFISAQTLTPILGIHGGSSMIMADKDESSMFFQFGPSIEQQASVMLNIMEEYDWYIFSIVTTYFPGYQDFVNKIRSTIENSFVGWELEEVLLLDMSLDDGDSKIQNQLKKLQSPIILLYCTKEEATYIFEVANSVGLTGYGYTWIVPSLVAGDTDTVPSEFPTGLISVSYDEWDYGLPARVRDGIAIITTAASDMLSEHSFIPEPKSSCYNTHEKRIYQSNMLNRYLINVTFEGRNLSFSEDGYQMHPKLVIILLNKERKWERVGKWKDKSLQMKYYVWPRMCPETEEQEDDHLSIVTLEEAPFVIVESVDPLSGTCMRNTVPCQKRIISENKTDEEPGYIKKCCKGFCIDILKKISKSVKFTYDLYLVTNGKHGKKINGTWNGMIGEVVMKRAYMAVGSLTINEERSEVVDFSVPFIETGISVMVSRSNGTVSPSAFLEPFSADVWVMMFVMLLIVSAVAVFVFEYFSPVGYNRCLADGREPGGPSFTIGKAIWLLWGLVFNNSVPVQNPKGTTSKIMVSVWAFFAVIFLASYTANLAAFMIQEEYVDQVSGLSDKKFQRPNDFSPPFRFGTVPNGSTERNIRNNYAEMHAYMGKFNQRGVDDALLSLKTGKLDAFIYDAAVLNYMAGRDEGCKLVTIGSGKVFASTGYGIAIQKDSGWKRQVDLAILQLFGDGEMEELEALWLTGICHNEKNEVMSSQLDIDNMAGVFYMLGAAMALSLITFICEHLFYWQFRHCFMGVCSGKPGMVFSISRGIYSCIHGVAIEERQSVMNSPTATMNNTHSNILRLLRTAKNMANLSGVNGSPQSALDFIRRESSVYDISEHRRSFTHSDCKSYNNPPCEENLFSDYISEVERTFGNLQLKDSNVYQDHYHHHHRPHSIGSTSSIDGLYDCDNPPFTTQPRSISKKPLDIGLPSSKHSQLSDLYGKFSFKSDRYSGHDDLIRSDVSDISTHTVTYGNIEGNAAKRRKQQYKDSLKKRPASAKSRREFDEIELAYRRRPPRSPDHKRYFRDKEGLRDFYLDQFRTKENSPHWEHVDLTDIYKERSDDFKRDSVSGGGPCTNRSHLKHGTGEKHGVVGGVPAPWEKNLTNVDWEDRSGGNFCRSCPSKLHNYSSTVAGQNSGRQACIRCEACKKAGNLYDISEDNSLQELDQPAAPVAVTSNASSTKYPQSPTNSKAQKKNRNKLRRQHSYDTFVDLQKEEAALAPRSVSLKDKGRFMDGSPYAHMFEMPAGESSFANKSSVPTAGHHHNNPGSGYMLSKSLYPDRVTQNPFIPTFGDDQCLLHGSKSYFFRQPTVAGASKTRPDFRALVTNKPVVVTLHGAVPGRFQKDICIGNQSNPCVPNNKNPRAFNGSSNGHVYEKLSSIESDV

SMILES | IC50 [µM]
Oc1ccc(C2(O)CCC(NCCCc3ccccc3)CC2)cc1 (stereo not drawn) [Example 71c, cis-4-[1-Hydroxy-4-(3-phenyl-propylamino)-cyclohexyl]-phenol] | 0.025
Oc1ccc([C@H]2OC[C@H](NCCCc3ccccc3)CO2)cc1 [Example 85, trans-4-[5-(3-Phenyl-propylamino)-[1,3]dioxan-2-yl]-phenol 1:1 but-2-enedioic acid] | 0.022

same assay, conditions: displacement of 5 nM 3H-Ro 25-6981; rat whole brain membranes (minus cerebellum and medulla oblongata); 2 hours at 4°C; read-out: IC50

SMILES | IC50 [µM]
Cc1ccc(CCCN[C@H]2CC[C@H](c3ccc(O)cc3)CC2)cc1 [Example 60b, trans-4-[4-(3-p-Tolyl-propylamino)-cyclohexyl]-phenol] | 0.007
CN(CCOc1ccccc1)[C@H]1CC[C@H](c2ccc(O)cc2)CC1 [Example 41b, trans-4-{4-[Methyl-(2-phenoxy-ethyl)-amino]-cyclohexyl}-phenol] | 0.02
C[C@@H]1C[C@H](c2ccc(O)cc2)CC[C@H]1N(C)CCCc1ccccc1 (racemic) [Example 73b, (1RS,3RS,4RS)-4-[3-Methyl-4-[methyl-(3-phenyl-propyl)-amino]-cyclohexyl]-phenol] | 0.01
Oc1ccc(N2CCC(NCCCCc3ccccc3)CC2)cc1 [Example 83c, 4-[4-(4-Phenyl-butylamino)-piperidin-1-yl]-phenol] | 0.06
CN(CCC(CO)c1ccccc1)[C@H]1CC[C@H](c2ccc(O)cc2)CC1 (mixture of isomers) [Example 67b, (RS)-4-[trans-4-[(4-Hydroxy-3-phenyl-butyl)-methyl-amino]-cyclohexyl]-phenol] | 0.1
Cc1ccccc1OCCN(C)[C@H]1CC[C@H](c2ccc(O)cc2)CC1 [Example 48c, trans-4-{4-[Methyl-(2-o-tolyloxy-ethyl)-amino]-cyclohexyl}-phenol] | 0.04
Cc1cccc(OCCN(C)[C@H]2CC[C@H](c3ccc(O)cc3)CC2)c1 [Example 47b, trans-4-{4-[Methyl-(2-m-tolyloxy-ethyl)-amino]-cyclohexyl}-phenol] | 0.03
Cc1ccc(OCCN(C)[C@H]2CC[C@@H](c3ccc(O)cc3)CC2)cc1 [Example 45b, cis-4-[4-[Methyl-(2-p-tolyloxy-ethyl)-amino]-cyclohexyl]-phenol] | 0.13
Cc1ccc(OCCN(C)[C@H]2CC[C@H](c3ccc(O)cc3)CC2)cc1 [Example 44b, trans-4-[4-[Methyl-(2-p-tolyloxy-ethyl)-amino]-cyclohexyl]-phenol] | 0.008
OCC(CCc1ccccc1)N[C@H]1CC[C@H](c2ccc(O)cc2)CC1 (mixture of isomers) [Example 66c, (RS)-4-[trans-4-(1-Hydroxymethyl-3-phenyl-propylamino)-cyclohexyl]-phenol] | 0.02
CCN(CCCc1ccccc1)[C@H]1CC[C@H](c2ccc(O)cc2)CC1 [Example 40c, trans-4-{4-[Ethyl-(3-phenyl-propyl)-amino]-cyclohexyl}-phenol] | 0.04
OCC(CN[C@H]1CC[C@H](c2ccc(O)cc2)CC1)Cc1ccccc1 (mixture of isomers) [Example 70b, (RS)-4-[trans-4-(2-Hydroxymethyl-3-phenyl-propylamino)-cyclohexyl]-phenol] | 0.1
Oc1ccc([C@H]2CC[C@H](NCC(O)Cc3ccccc3)CC2)cc1 (mixture of isomers) [Example 50, (RS)-4-[trans-4-(2-Hydroxy-3-phenyl-propylamino)-cyclohexyl]-phenol] | 0.08
Oc1ccc(N2CCC(NCCCc3ccccc3)CC2)cc1 [Example 77, 4-[4-(3-Phenyl-propylamino)-piperidin-1-yl]-phenol] | 0.007
Oc1ccc([C@H]2CC[C@H](NCCCc3ccccc3)CC2)cc1 [Example 22b, trans-4-[4-(3-Phenyl-propylamino)-cyclohexyl]-phenol] | 0.02
C[C@@H]1CN(c2ccc(O)cc2)CC[C@@H]1NCCCc1ccccc1 (racemic) [Example 81g, (3RS,4SR)-4-[3-Methyl-4-(3-phenyl-propylamino)-piperidin-1-yl]-phenol] | 0.027
CN(CCC(O)c1ccccc1)[C@H]1CC[C@H](c2ccc(O)cc2)CC1 (mixture of isomers) [Example 63b, (RS)-4-[trans-4-[(3-Hydroxy-3-phenyl-propyl)-methyl-amino]-cyclohexyl]-phenol] | 0.02
CN(CCCc1ccc(F)cc1)[C@H]1CC[C@H](c2ccc(O)cc2)CC1 [Example 61b, trans-4-(4-{[3-(4-Fluoro-phenyl)-propyl]-methyl-amino}-cyclohexyl)-phenol] | 0.004
Oc1ccc([C@H]2CC[C@H](NCCCCc3ccccc3)CC2)cc1 [Example 24, trans-4-[4-(4-Phenyl-butylamino)-cyclohexyl]-phenol] | 0.07
CC(CCc1ccccc1)N(C)[C@H]1CC[C@H](c2ccc(O)cc2)CC1 (mixture of isomers) [Example 57b, (RS)-4-[trans-4-[Methyl-(1-methyl-3-phenyl-propyl)-amino]-cyclohexyl]-phenol] | 0.01
Oc1ccc([C@H]2CC[C@H](NCCCc3ccc(F)cc3)CC2)cc1 [Example 62b, trans-4-[4-[3-(4-Fluoro-phenyl)-propylamino]-cyclohexyl]-phenol] | 0.006
CN(C(CO)CCc1ccccc1)[C@H]1CC[C@H](c2ccc(O)cc2)CC1 (mixture of isomers) [Example 65b, (RS)-4-[trans-4-[(1-Hydroxymethyl-3-phenyl-propyl)-methyl-amino]-cyclohexyl]-phenol] | 0.01
CN(CCOc1ccc(F)cc1)[C@H]1CC[C@H](c2ccc(O)cc2)CC1 [Example 46b, trans-4-(4-{[2-(4-Fluoro-phenoxy)-ethyl]-methyl-amino}-cyclohexyl)-phenol] | 0.01
C[C@@H]1C[C@H](c2ccc(O)cc2)CC[C@H]1NCCCc1ccccc1 (racemic) [Example 74c, (1RS,3RS,4RS)-4-[3-Methyl-4-(3-phenyl-propylamino)-cyclohexyl]-phenol] | 0.01
Oc1ccc([C@H]2CC[C@H](NCCC(O)c3ccccc3)CC2)cc1 (mixture of isomers) [Example 64b, (RS)-4-[trans-4-(3-Hydroxy-3-phenyl-propylamino)-cyclohexyl]-phenol] | 0.06
CN(CCCc1ccccc1)[C@H]1CC[C@H](c2ccc(O)cc2)CC1 [Example 39b, trans-4-{4-[Methyl-(3-phenyl-propyl)-amino]-cyclohexyl}-phenol] | 0.009
CN(CCCc1ccccc1)[C@H]1CC[C@H](c2ccc(NS(C)(=O)=O)cc2)CC1 [Example 56, trans-N-(4-{4-[Methyl-(3-phenyl-propyl)-amino]-cyclohexyl}-phenyl)-methanesulfonamide] | 0.011
Oc1ccc([C@H]2CC[C@H](NCCOc3ccccc3)CC2)cc1 [Example 43b, trans-4-[4-(2-Phenoxy-ethylamino)-cyclohexyl]-phenol] | 0.02
CC(CCc1ccccc1)N[C@H]1CC[C@H](c2ccc(O)cc2)CC1 (mixture of isomers) [Example 58, 4-[trans-4-[(RS)-1-Methyl-3-phenyl-propylamino)-cyclohexyl]-phenol] | 0.04
CN(CCCc1ccccc1)C1CCN(c2ccc(O)cc2)CC1 [Example 75, 4-[4-[Methyl-(3-phenyl-propyl)-amino]-piperidin-1-yl]-phenol] | 0.007
